Like-named read-outs stand apart in the source and are kept apart here.
Tests used:
Type in all cases: biochemical
Sirt2 = biological target: T1, Sirt2 (Homo sapiens, UniProt Q8IXJ6); experiment: Fluor-de-Lys peptide deacetylation assay, Sirt2
T1 sequence (Q8IXJ6 34-356): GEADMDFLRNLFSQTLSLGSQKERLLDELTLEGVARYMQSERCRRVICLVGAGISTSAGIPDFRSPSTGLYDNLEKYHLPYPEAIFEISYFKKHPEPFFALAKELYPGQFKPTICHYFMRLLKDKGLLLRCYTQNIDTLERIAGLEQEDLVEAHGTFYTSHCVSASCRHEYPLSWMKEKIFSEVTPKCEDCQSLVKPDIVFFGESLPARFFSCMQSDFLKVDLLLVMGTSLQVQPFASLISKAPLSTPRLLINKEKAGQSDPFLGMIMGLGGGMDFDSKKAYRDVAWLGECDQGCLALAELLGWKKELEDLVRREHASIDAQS
Description: The Sirt2 construct was expressed in E. coli Rosetta2 cells (Merck) in LB/Ampicillin/Chloramphenicol medium. Cells were grown at 37 °C, and expression induced at an OD600 of 0.6-0.8 for 4 h with 0.5 mM IPTG. Harvested cells were resuspended in buffer A (50 mM Tris/HCl pH 7.8, 200 mM NaCl, 2 mM DTT), disrupted with a Sonifier, and cell debris removed by 40 min centrifugation at 4 °C, 18000 rpm in a HFA22.50 rotor. The supernatant was supplemented with 10 mM imidazole and incubated with Ni-NTA resin for 1 h at 4 °C. […] The protein was concentrated in an amicon unit (Millipore, Billerica, USA) and digested over night at 4 °C with TEV-protease. The protease was removed from cleaved Sirt2 by incubation with Ni-NTA resin for 1 h at 4 °C. The protein was concentrated, 1:5 diluted with 50 mM Tris/HCl, pH 7.8, and applied to a HiTrap Q anion exchange column (GE Healthcare) equilibrated with 50 mM Tris/HCl, pH 7.8, 50 mM NaCl, 2 mM DTT and eluted with a gradient (20 column volumes) to 50 mM Tris/HCl, pH 7.8, 1 M NaCl, 2 mM DTT. Sirt2 was then applied to a Superdex200 gel filtration column (GE Healthcare) equilibrated in 20 mM Tris/HCl, pH 7.8, 150 mM NaCl, 2 mM DTT. The eluted protein was analyzed by SDS-PAGE, re-concentrated, and shock-frozen in liquid nitrogen for storage at -80 °C.
(§1) The commercial Fluor-de-Lys (FdL) assay kits 1 and 2 (Biomol, Plymouth Meeting, USA) were used to test the deacetylase activity of the four Sirtuins. In both kits the substrate derived from p53 is composed of three amino acids, the acetyl lysine and a C-terminally attached fluorophor. For Sirt2 and 3, FdL-2 peptide (QPK(acetyl-K)) was used, and FdL-1 peptide (RHK(acetyl-K)) for Sirt5 and Sirt6. All tests were done with 0.1 mM of the respective FdL peptide and 0.5 mM NAD^+ as substrates.
(§2) NCI compound stocks were prepared by dissolving them in DMSO at a concentration of 5 mM. The initial screens with all 40 compounds contained 5 μl Sirtuin solution (Sirt2/3 0.1 mg/ml stock concentration; Sirt5/6 1 mg/ml), 1 μl of compound stock (resulting in a 100 μM end concentration), 15 μl FdL substrate, and assay buffer (supplied in the assay kit) to a total volume of 50 μl. As control reactions, peptide with either the compound (without Sirtuin) or with Sirtuin and DMSO instead of compound were measured. After starting the reactions by adding the FdL substrate, assays were incubated for 30 min at 37 °C. Subsequently, 50 μl of a 10 mg/ml trypsin stock (“Developer solution”) were added and the reactions were incubated for 45 min at room temperature. Fluorescence values were measured in a fluorometric plate reader with excitation at 360 nm and read out at 485 nm. Values were then corrected with the control reaction (same compound, but without Sirtuin).
(§3) All measurements shown are averages of duplicates (screen) or triplicates (dose-response curves), and representatives of at least two independent replications. Error bars indicate standard deviations.

Sirt3 = biological target: T2, Sirt3 (Homo sapiens, UniProt Q9NTG7); experiment: Fluor-de-Lys peptide deacetylation assay, Sirt3
T2 construct: Sirt3 residues 114-399; His-tag with linker comprising a TEV protease cleavage site (N); made in house; host or cells: E. coli
T2 sequence (Q9NTG7 114-399): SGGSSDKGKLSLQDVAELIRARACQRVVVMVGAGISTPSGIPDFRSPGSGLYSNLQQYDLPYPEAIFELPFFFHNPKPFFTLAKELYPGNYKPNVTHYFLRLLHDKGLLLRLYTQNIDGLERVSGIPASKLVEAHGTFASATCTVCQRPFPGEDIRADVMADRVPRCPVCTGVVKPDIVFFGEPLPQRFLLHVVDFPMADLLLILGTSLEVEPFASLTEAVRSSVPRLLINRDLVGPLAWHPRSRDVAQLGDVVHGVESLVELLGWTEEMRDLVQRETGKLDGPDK
Description: (§4) Sirt3 was expressed in E. coli and purified via Ni-NTA and size exclusion chromatography as described elsewhere, and Sirt5 according to the protocol of Schuetz et al.. […] The protein was bound to the HiTrapQ column in buffer A and eluted in a gradient to buffer A supplemented with 400 mM KCl. Fractions were analyzed by SDS-PAGE, and the Sirt1 fractions were pooled and transferred into buffer A using a NAP column (GE Healthcare).
as §1, §2, §3

Sirt5 = biological target: T3, Sirt5 (Homo sapiens, UniProt Q9NXA8); experiment: Fluor-de-Lys peptide deacetylation assay, Sirt5
T3 construct: Sirt5 residues 34-302; His-tag with linker comprising a TEV protease cleavage site (N); made in house
T3 sequence (Q9NXA8 34-302): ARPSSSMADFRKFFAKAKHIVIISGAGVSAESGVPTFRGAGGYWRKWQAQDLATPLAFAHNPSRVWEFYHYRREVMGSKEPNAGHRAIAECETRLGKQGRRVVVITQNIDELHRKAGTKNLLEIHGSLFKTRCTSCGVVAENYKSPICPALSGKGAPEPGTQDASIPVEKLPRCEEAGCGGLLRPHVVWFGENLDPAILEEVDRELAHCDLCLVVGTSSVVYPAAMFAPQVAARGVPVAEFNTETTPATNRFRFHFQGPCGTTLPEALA
Description: as §4, §1, §2, §3

Sirt6 = biological target: T4, Sirt6 (Homo sapiens, UniProt Q8N6T7); experiment: Fluor-de-Lys peptide deacetylation assay, Sirt6
T4 construct: Sirt6 residues 13-308; His-tag with linker comprising a TEV protease cleavage site (N, cleaved yes); made in house; host or cells: E. coli Rosetta2
T4 sequence (Q8N6T7 13-308): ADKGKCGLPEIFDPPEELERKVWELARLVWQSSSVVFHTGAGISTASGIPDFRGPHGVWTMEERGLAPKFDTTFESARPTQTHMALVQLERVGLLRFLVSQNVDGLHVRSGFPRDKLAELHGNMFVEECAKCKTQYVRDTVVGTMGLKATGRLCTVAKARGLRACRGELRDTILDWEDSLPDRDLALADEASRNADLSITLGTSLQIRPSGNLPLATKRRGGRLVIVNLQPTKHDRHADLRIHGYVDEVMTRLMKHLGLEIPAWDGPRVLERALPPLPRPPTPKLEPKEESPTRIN
Description: as §1, §2, §3

[1] = 100 μM compound, 0.1 mM FdL-2 peptide, 0.5 mM NAD+
[2] = 100 μM compound, 0.1 mM FdL-1 peptide, 0.5 mM NAD+

Question: Which “Effect on the activity of Sirt2” value (Sirt2) does the source give for O=C1c2cc([N+](=O)[O-])ccc2-c2ccc3c4ccc5c6c(ccc(c7ccc1c2c73)c64)C(=O)c1cc([N+](=O)[O-])ccc1-5 [CSC14, 3,12bis(hydroxy(oxido)amino)anthra[9,1,2-cde]benzo[rst]pentaphene-5,10-dione, (Amanthrene Supra Black BBN)] here?
Answer: inhibition (key: inhibition: significant inhibitory effects (>25% loss of activity); ---: no such effect)

Question: What about the “Effect on the activity of Sirt3” value (Sirt3) of the same compound?
Answer: --- (key: inhibition: significant inhibitory effects (>25% loss of activity); ---: no such effect)

Question: What about the “Effect on the activity of Sirt5” value (Sirt5) of the same compound?
Answer: inhibition (key: inhibition: significant inhibitory effects (>25% loss of activity); ---: no such effect)

Question: What about the “Effect on the activity of Sirt6” value (Sirt6) of the same compound?
Answer: --- (key: inhibition: significant inhibitory effects (>25% loss of activity); ---: no such effect)

Question: With Cc1nc2ccccc2nc1-c1ccc(/N=[N+](\[O-])c2ccc(-c3nc4ccccc4nc3C)cc2)cc1 [CSC15, 2-(4-(1-hydroxy-2-(4-(3-methyl-2-quinoxalinyl)phenyl)-1^5-diazenyl)phenyl)-3-methylquinoxaline] as the compound, how does the “Effect on the activity of Sirt2” value (Sirt2; [1]) read?
Answer: --- (no such effect)

Question: And the “Effect on the activity of Sirt3” value (Sirt3; [1])?
Answer: --- (no such effect)

Question: What about the “Effect on the activity of Sirt5” value (Sirt5; [2]) of the same compound?
Answer: --- (no such effect)

Question: And the “Effect on the activity of Sirt6” value (Sirt6; [2])?
Answer: --- (no such effect)

Question: What does the source list for C[C@]12CC[C@H]3[C@@H](CCC4=CC(=O)CC[C@@H]43)[C@@H]1CCC2OC1(O)C(=O)c2ccccc2C1=O (stereo partly shown) [CSC16, 2-hydroxy-2-((3-oxoestr-4-en-17-yl)oxy)-1H-indene-1,3(2H)-dione]?
Answer: Effect on the activity of Sirt2 (Sirt2): --- (key: inhibition: significant inhibitory effects (>25% loss of activity); ---: no such effect); Effect on the activity of Sirt3 (Sirt3): --- (key: inhibition: significant inhibitory effects (>25% loss of activity); ---: no such effect); Effect on the activity of Sirt5 (Sirt5): --- (key: inhibition: significant inhibitory effects (>25% loss of activity); ---: no such effect); Effect on the activity of Sirt6 (Sirt6): --- (key: inhibition: significant inhibitory effects (>25% loss of activity); ---: no such effect)

Question: What does the source list for O=C(Nc1ccc(Nc2ccc3c(c2)C(=O)c2ccccc2C3=O)c2c1C(=O)c1ccccc1C2=O)c1ccccc1 [CSC17, N-(4-((9,10-dioxo-9,10-dihydro-2-anthracenyl)amino)-9,10-dioxo-9,10-dihydro-1-anthracenyl)benzamide, (Indanthrene Corinth RK)]?
Answer: Effect on the activity of Sirt2 (Sirt2; [1]): --- (no such effect); Effect on the activity of Sirt3 (Sirt3; [1]): --- (no such effect); Effect on the activity of Sirt5 (Sirt5; [2]): --- (no such effect); Effect on the activity of Sirt6 (Sirt6; [2]): --- (no such effect)

Question: c1ccc(CN2COc3c(ccc4c5c(ccc34)CN(Cc3ccccc3)CO5)C2)cc1 [CSC18] was tested. Which “Effect on the activity of Sirt2” value (Sirt2; [1]) did it give?
Answer: --- (no such effect)

Question: And the “Effect on the activity of Sirt3” value (Sirt3; [1])?
Answer: --- (no such effect)

Question: What about the “Effect on the activity of Sirt5” value (Sirt5; [2]) of the same compound?
Answer: --- (no such effect)

Question: What about the “Effect on the activity of Sirt6” value (Sirt6; [2]) of the same compound?
Answer: --- (no such effect)

Question: Which results are given for O=C1c2ccccc2C(C2c3ccccc3C(=O)c3cc(Br)ccc32)c2ccc(Br)cc21 (stereo not shown) [CSC19]?
Answer: Effect on the activity of Sirt2 (Sirt2; [1]): --- (no such effect); Effect on the activity of Sirt3 (Sirt3; [1]): --- (no such effect); Effect on the activity of Sirt5 (Sirt5; [2]): --- (no such effect); Effect on the activity of Sirt6 (Sirt6; [2]): --- (no such effect)

Question: What does the source list for O=C1c2ccccc2C(=O)N1c1ccc(Cc2ccc(N3C(=O)c4ccccc4C3=O)cc2)cc1 [CSC20, 2-(4-(4-(1,3-dioxo-1,3-dihydro-2H-isoindol-2-yl)benzyl)phenyl)-1H-isoindole-1,3(2H)-dione]?
Answer: Effect on the activity of Sirt2 (Sirt2; [1]): --- (no such effect); Effect on the activity of Sirt3 (Sirt3; [1]): --- (no such effect); Effect on the activity of Sirt5 (Sirt5; [2]): --- (no such effect); Effect on the activity of Sirt6 (Sirt6; [2]): --- (no such effect)

Question: With CN1C[C@H](C(=O)N[C@]2(C)O[C@@]3(O)[C@@H]4CCCN4C(=O)[C@H](Cc4ccccc4)N3C2=O)C=C2c3cccc4[nH]cc(c34)C[C@H]21 [CSC21, 5'-benzyl-12'-hydroxy-2'-methyl-3',6',18-trioxoergotaman, (Ergotamine), reference compound] as the compound, how does the “Effect on the activity of Sirt2” value (Sirt2) read?
Answer: inhibition (key: inhibition: significant inhibitory effects (>25% loss of activity); ---: no such effect)

Question: What about the “Effect on the activity of Sirt3” value (Sirt3) of the same compound?
Answer: --- (key: inhibition: significant inhibitory effects (>25% loss of activity); ---: no such effect)

Question: And the “Effect on the activity of Sirt5” value (Sirt5)?
Answer: inhibition (key: inhibition: significant inhibitory effects (>25% loss of activity); ---: no such effect)

Question: What about the “Effect on the activity of Sirt6” value (Sirt6) of the same compound?
Answer: inhibition (key: inhibition: significant inhibitory effects (>25% loss of activity); ---: no such effect)

Question: How did the “Effect on the activity of Sirt2” value (Sirt2; [1]) turn out when N=C(c1ccc2ccccc2c1)c1ccccc1Cc1ccccc1 [CSC22, (2-benzylphenyl)(2-naphthyl)methanimine] was run?
Answer: inhibition (significant inhibitory effects (>25% loss of activity))

Question: What about the “Effect on the activity of Sirt3” value (Sirt3; [1]) of the same compound?
Answer: --- (no such effect)

Question: And the “Effect on the activity of Sirt5” value (Sirt5; [2])?
Answer: --- (no such effect)

Question: And the “Effect on the activity of Sirt6” value (Sirt6; [2])?
Answer: --- (no such effect)

Question: How did the “Effect on the activity of Sirt2” value (Sirt2; [1]) turn out when Cc1cc(C)cc(C(=N)c2ccccc2Cc2cccc3ccccc23)c1 [CSC23, (3,5-dimethylphenyl)(2-(1-naphthylmethyl)phenyl)methanimine] was run?
Answer: inhibition (significant inhibitory effects (>25% loss of activity))

Question: And the “Effect on the activity of Sirt3” value (Sirt3; [1])?
Answer: --- (no such effect)

Question: What about the “Effect on the activity of Sirt5” value (Sirt5; [2]) of the same compound?
Answer: --- (no such effect)

Question: And the “Effect on the activity of Sirt6” value (Sirt6; [2])?
Answer: --- (no such effect)
